This note sets out measurements from patent US12404295B2, “(Hetero)aryl-methyl-thio-beta-D-galactopyranoside derivatives” (Idorsia Pharmaceuticals Ltd, priority 2019, dated 2025).

The target in one assay is human Gal-3 (hGal-3) (Homo sapiens (Human), UniProt P17931). Briefly: competitive binding assay: biotinylated hGal-3 binding to microplate-adsorbed asialofetuin (ASF). The essentials: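 3 h, 4 °C binding step; cold buffer wash; streptavidin-HRP 80 ng/mL, 1 h, 4 °C; ABTS colorimetric read-out. Compounds diluted serially in DMSO. IC50 reported as mean of repeat runs.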
human Gal-3 (hGal-3), sequence (P17931 whole entry): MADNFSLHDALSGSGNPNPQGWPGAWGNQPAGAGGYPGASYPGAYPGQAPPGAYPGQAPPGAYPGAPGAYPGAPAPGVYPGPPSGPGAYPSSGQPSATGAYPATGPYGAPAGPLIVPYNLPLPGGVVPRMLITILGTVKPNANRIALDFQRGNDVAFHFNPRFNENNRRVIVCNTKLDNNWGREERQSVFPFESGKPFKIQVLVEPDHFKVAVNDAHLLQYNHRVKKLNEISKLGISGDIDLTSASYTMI
In the next assay the target is human Gal-1 (hGal-1) (Homo sapiens (Human), UniProt P09382). Briefly: competitive binding assay: biotinylated hGal-1 binding to microplate-adsorbed asialofetuin (ASF). Particulars: Table 15; read-out: IC50 (Galectin-1 inhibition). In outline:
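Spectrophotometric competition readout: after compound and biotinylated hGal-1 (300-1000 ng/mL) sit 3 h at 4° C on adsorbed asialofetuin, streptavidin-peroxidase (1 h, 4° C) and ABTS reveal residual binding. Reported IC50 values are means of repeat runs.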

Setting [1] is: Table 10, 2-OMe-Gal inhibitors, read-out: IC50 (Gal-3 inhibition).
The mark [2] stands for this setting: Table 5, read-out: IC50 (Gal-3 inhibition).
Setting [3] is: Gal-3 inhibition, binding of biotinylated hGal-3 to ASF, mean values, read-out: IC50.

pIC50: −log10 of the molar value. Read-outs that look alike come from different tables or passages of the source.

human Gal-1 (hGal-1), sequence (P09382 whole entry): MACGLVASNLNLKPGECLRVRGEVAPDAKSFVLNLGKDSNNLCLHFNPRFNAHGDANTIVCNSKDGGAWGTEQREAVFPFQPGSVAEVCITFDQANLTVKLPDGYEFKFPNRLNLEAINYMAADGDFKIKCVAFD

Usually pIC50 stands for the negative decadic logarithm of the IC50, by convention in mol/L. On to “(2R,3R,4S,5R,6S)-6-(((R)-(5-Cyclopropyl-3-methylisoxazol-4-yl)(1-hydroxycyclohexyl)methyl)thio)-2-(hydroxymethyl)-5-methoxy-4-(4-(3,4,5-trifluorophenyl)-1H-1,2,3-triazol-1-yl)tetrahydro-2H-pyran-3-ol [Example 2.39.128R.I.]”, for which the pIC50 is 6.52 at human Gal-3 (hGal-3) (setting [1]) and 5.63 on human Gal-1 (hGal-1).
Regarding “(2S,3R,4S,5R,6R)-2-(((S)-(2,3-Dichlorophenyl)(4,4-difluoro-1-hydroxycyclohexyl)methyl)thio)-6-(hydroxymethyl)-4-(4-(3,4,5-trifluorophenyl)-1H-1,2,3-triazol-1-yl)tetrahydro-2H-pyran-3,5-diol [Example 2.44.113S.]”, the negative-log IC50 (pIC50) was 4.24 on human Gal-3 (hGal-3) (setting [2]) and 4.25 on human Gal-1 (hGal-1).
With `OC[C@H]1O[C@@H](S[C@@H](c2ccccc2C(F)(F)F)C2(O)CCOCC2)[C@H](O)[C@@H](n2cc(-c3cc(F)c(F)c(F)c3)nn2)[C@H]1O` [Example 2.41.112S., (2R,3R,4S,5R,6S)-2-(Hydroxymethyl)-6-(((S)-(4-hydroxytetrahydro-2H-pyran-4-yl)(2-(trifluoromethyl)phenyl)methyl)thio)-4-(4-(3,4,5-trifluorophenyl)-1H-1,2,3-triazol-1-yl)tetrahydro-2H-pyran-3,5-diol], the figures for the pIC50 at human Gal-3 (hGal-3) (setting [2]) and at human Gal-1 (hGal-1) were 5.22 and 4.23, respectively.
Turning to `Cc1nc(C)c([C@@H](S[C@@H]2O[C@H](CO)[C@H](O)[C@H](n3cc(-c4cc(F)c(F)c(F)c4)nn3)[C@H]2O)C2(O)CCOCC2)nc1C` [Example 2.41.119R., (2R,3R,4S,5R,6S)-2-(Hydroxymethyl)-6-(((R)-(4-hydroxytetrahydro-2H-pyran-4-yl)(3,5,6-trimethylpyrazin-2-yl)methyl)thio)-4-(4-(3,4,5-trifluorophenyl)-1H-1,2,3-triazol-1-yl)tetrahydro-2H-pyran-3,5-diol], the pIC50 at human Gal-3 (hGal-3) (setting [2]) is 7.22; on human Gal-1 (hGal-1) it was 6.31.
Consider `Cc1c(F)cc(-c2cn([C@H]3[C@@H](O)[C@@H](CO)O[C@@H](S[C@H](c4ccccc4C(F)(F)F)C(C)(C)O)[C@@H]3O)nn2)cc1F` [Example 3.31.112R., (2S,3R,4S,5R,6R)-4-(4-(3,5-Difluoro-4-methylphenyl)-1H-1,2,3-triazol-1-yl)-2-(((R)-2-hydroxy-2-methyl-1-(2-(trifluoromethyl)phenyl)propyl)thio)-6-(hydroxymethyl)tetrahydro-2H-pyran-3,5-diol], for which the pIC50 on human Gal-3 (hGal-3) (setting [3]) was 6.82; on human Gal-1 (hGal-1), 5.55.
Turning to `Cc1ccccc1[C@@H](S[C@@H]1O[C@H](CO)[C@H](O)[C@H](n2cc(-c3cc(F)c(F)c(F)c3)nn2)[C@H]1O)C1(O)CCCC1` [Example 2.38.102R., (2S,3R,4S,5R,6R)-2-(((R)-(1-Hydroxycyclopentyl)(o-tolyl)methyl)thio)-6-(hydroxymethyl)-4-(4-(3,4,5-trifluorophenyl)-1H-1,2,3-triazol-1-yl)tetrahydro-2H-pyran-3,5-diol], the pIC50 on human Gal-3 (hGal-3) (setting [2]) was 6.96; at human Gal-1 (hGal-1) it was 5.74.
Turning to `CCC(O)C(S[C@@H]1O[C@H](CO)[C@H](O)[C@H](n2cc(-c3cc(F)c(F)c(F)c3)nn2)[C@H]1O)c1ccccc1C(F)(F)F` (stereo partly drawn) [Example 2.60.112., (2S,3R,4S,5R,6R)-2-((2-Hydroxy-1-(2-(trifluoromethyl)phenyl)butyl)thio)-6-(hydroxymethyl)-4-(4-(3,4,5-trifluorophenyl)-1H-1,2,3-triazol-1-yl)tetrahydro-2H-pyran-3,5-diol], the pIC50 was 6.64 on human Gal-3 (hGal-3) (setting [3]) and 5.46 at human Gal-1 (hGal-1).
Regarding `CCn1nnc(C)c1C(S[C@@H]1O[C@H](CO)[C@H](O)[C@H](n2cc(-c3cc(F)c(F)c(F)c3)nn2)[C@H]1OC)C1(O)CCC(F)(F)CC1` (stereo partly drawn) [Example 2.44.138.I., (2R,3R,4S,5R,6S)-6-(((4,4-Difluoro-1-hydroxycyclohexyl)(1-ethyl-4-methyl-1H-1,2,3-triazol-5-yl)methyl)thio)-2-(hydroxymethyl)-5-methoxy-4-(4-(3,4,5-trifluorophenyl)-1H-1,2,3-triazol-1-yl)tetrahydro-2H-pyran-3-ol], the pIC50 was 6.52 on human Gal-3 (hGal-3) (setting [1]) and 6.08 at human Gal-1 (hGal-1).
Take `CC(C)(O)[C@@H](S[C@@H]1O[C@H](CO)[C@H](O)[C@H](n2cc(-c3cc(F)c(F)c(F)c3)nn2)[C@H]1O)c1ccccc1Cl` [Example 2.31.111S., (2S,3R,4S,5R,6R)-2-(((S)-1-(2-Chlorophenyl)-2-hydroxy-2-methylpropyl)thio)-6-(hydroxymethyl)-4-(4-(3,4,5-trifluorophenyl)-1H-1,2,3-triazol-1-yl)tetrahydro-2H-pyran-3,5-diol]: the pIC50 on human Gal-3 (hGal-3) (setting [3]) was 5.37; at human Gal-1 (hGal-1), 4.51.
On to `CCCCCc1ccccc1C(S[C@@H]1O[C@H](CO)[C@H](O)[C@H](n2cc(-c3cc(F)c(F)c(F)c3)nn2)[C@H]1O)C(C)(C)O` (stereo partly drawn) [Example 2.31.109., (2S,3R,4S,5R,6R)-2-((2-Hydroxy-2-methyl-1-(2-pentylphenyl)propyl)thio)-6-(hydroxymethyl)-4-(4-(3,4,5-trifluorophenyl)-1H-1,2,3-triazol-1-yl)tetrahydro-2H-pyran-3,5-diol], for which the results for the pIC50 at human Gal-3 (hGal-3) (setting [3]) and on human Gal-1 (hGal-1) were 6.27 and 5.49, respectively.
For `CCn1ncc(Cl)c1[C@@H](S[C@@H]1O[C@H](CO)[C@H](O)[C@H](n2cc(-c3cc(F)c(F)c(F)c3)nn2)[C@H]1OC)C1(O)CCC(F)(F)CC1` [Example 2.44.139R.I., (2R,3R,4S,5R,6S)-6-(((R)-(4-Chloro-1-ethyl-1H-pyrazol-5-yl)(4,4-difluoro-1-hydroxycyclohexyl)methyl)thio)-2-(hydroxymethyl)-5-methoxy-4-(4-(3,4,5-trifluorophenyl)-1H-1,2,3-triazol-1-yl)tetrahydro-2H-pyran-3-ol], the values for the pIC50 on human Gal-3 (hGal-3) (setting [1]) and on human Gal-1 (hGal-1) were 6.49 and 6.27, respectively.
For `CO[C@@H]1[C@@H](n2cc(-c3ccc(F)c(F)c3)nn2)[C@@H](O)[C@@H](CO)O[C@H]1SC(c1ncccc1C)C1(O)CCC(F)(F)CC1` (stereo partly drawn) [Example 16.44.126.I., (2R,3R,4S,5R,6S)-6-(((4,4-Difluoro-1-hydroxycyclohexyl)(3-methylpyridin-2-yl)methyl)thio)-4-(4-(3,4-difluorophenyl)-1H-1,2,3-triazol-1-yl)-2-(hydroxymethyl)-5-methoxytetrahydro-2H-pyran-3-ol], the pIC50 is 7.05 at human Gal-3 (hGal-3) (Table 14, read-out: IC50 (Gal-3 inhibition)) and 6.14 on human Gal-1 (hGal-1).
For `O=C(NC1CC1)N1CCC(O)([C@@H](S[C@@H]2O[C@H](CO)[C@H](O)[C@H](n3cc(-c4cc(F)c(F)c(F)c4)nn3)[C@H]2O)c2ccccc2C(F)(F)F)CC1` [Example 2.49.112S., N-Cyclopropyl-4-((S)-(((2S,3R,4S,5R,6R)-3,5-dihydroxy-6-(hydroxymethyl)-4-(4-(3,4,5-trifluorophenyl)-1H-1,2,3-triazol-1-yl)tetrahydro-2H-pyran-2-yl)thio)(2-(trifluoromethyl)phenyl)methyl)-4-hydroxypiperidine-1-carboxamide], the pIC50 at human Gal-3 (hGal-3) (setting [3]) is 5.51; on human Gal-1 (hGal-1), 4.92.
The corresponding values for `CC(C)(O)[C@H](S[C@@H]1O[C@H](CO)[C@H](O)[C@H](n2cc(-c3cc(F)c(F)c(F)c3)nn2)[C@H]1O)c1ccccc1C(F)(F)F` [Example 2.31.112R., (2S,3R,4S,5R,6R)-2-(((R)-2-Hydroxy-2-methyl-1-(2-(trifluoromethyl)phenyl)propyl)thio)-6-(hydroxymethyl)-4-(4-(3,4,5-trifluorophenyl)-1H-1,2,3-triazol-1-yl)tetrahydro-2H-pyran-3,5-diol] are 6.54 and 5.58.
As to `CO[C@@H]1[C@@H](n2cc(-c3cc(F)c(F)c(F)c3)nn2)[C@@H](O)[C@@H](CO)O[C@H]1S[C@@H](c1nccc(Cl)c1Cl)C1(O)CCC(F)(F)CC1` [Example 2.44.143S.I., (2R,3R,4S,5R,6S)-6-(((S)-(3,4-Dichloropyridin-2-yl)(4,4-difluoro-1-hydroxycyclohexyl)methyl)thio)-2-(hydroxymethyl)-5-methoxy-4-(4-(3,4,5-trifluorophenyl)-1H-1,2,3-triazol-1-yl)tetrahydro-2H-pyran-3-ol], the pIC50 at human Gal-3 (hGal-3) (Table 11, read-out: IC50 (Gal-3 inhibition)) is 5.00; on human Gal-1 (hGal-1), 5.01.
Turning to `Cc1nccnc1[C@@H](S[C@@H]1O[C@H](CO)[C@H](O)[C@H](n2cc(-c3cc(F)c(F)c(F)c3)nn2)[C@H]1O)C1(O)CCC(F)(F)CC1` [Example 2.44.129R., (2S,3R,4S,5R,6R)-2-(((R)-(4,4-Difluoro-1-hydroxycyclohexyl)(3-methylpyrazin-2-yl)methyl)thio)-6-(hydroxymethyl)-4-(4-(3,4,5-trifluorophenyl)-1H-1,2,3-triazol-1-yl)tetrahydro-2H-pyran-3,5-diol], the pIC50 at human Gal-3 (hGal-3) (setting [3]) was 7.52; on human Gal-1 (hGal-1), 6.70.
In the case of “(2S,3R,4S,5R,6R)-2-(((R)-(2,3-Dichlorophenyl)(4,4-difluoro-1-hydroxycyclohexyl)methyl)thio)-6-(hydroxymethyl)-4-(4-(3,4,5-trifluorophenyl)-1H-1,2,3-triazol-1-yl)tetrahydro-2H-pyran-3,5-diol [Example 2.44.113R.]”, the pIC50 on human Gal-3 (hGal-3) (setting [2]) was 6.10; on human Gal-1 (hGal-1), 5.76.
`CCc1c([C@H](S[C@@H]2O[C@H](CO)[C@H](O)[C@H](n3cc(-c4cc(F)c(F)c(F)c4)nn3)[C@H]2O)C2(O)CCC(F)(F)CC2)noc1C1CC1` [Example 2.44.130S., (2S,3R,4S,5R,6R)-2-(((S)-(5-Cyclopropyl-4-ethylisoxazol-3-yl)(4,4-difluoro-1-hydroxycyclohexyl)methyl)thio)-6-(hydroxymethyl)-4-(4-(3,4,5-trifluorophenyl)-1H-1,2,3-triazol-1-yl)tetrahydro-2H-pyran-3,5-diol]: the pIC50 is 5.73 at human Gal-3 (hGal-3) (setting [3]) and 5.25 at human Gal-1 (hGal-1).
